Measured values: patent US6815187B1, “Stimulation of angiogenesis via syndecan-4 cytoplasmic domain signaling pathway” (Beth Israel Deaconess Medical Center, priority 1998, dated 2004)
Where no end group is shown, it is not given here. [ ]: non-standard residue; d: D form. pS = N[C@@H](COP(=O)(O)O)C(=O)O

Key:
[1] = test system: syndecan-4 cytoplasmic tail phosphorylation in NIH 3T3 cells; assay: Syndecan-4 cytoplasmic tail phosphorylation stoichiometry (32P/35S double labeling) in NIH 3T3 cells; format: cell-based
Procedure: Confluent NIH 3T3 cells were washed twice in phosphate-free DMEM and incubated for 24 h at 37° C. in a 5% CO2 humidified atmosphere in phosphate-free DMEM supplemented with 0.5% fetal bovine serum. The cells were washed twice with methionine, phosphate, and serum-free DMEM and incubated for 6 h in the same medium, supplemented with 400 μCi/ml [^35S]methionine (New England Nuclear, Boston, Mass.). At the onset of the last 2 h of incubation, 500 μCi/ml [^32P]orthophosphoric acid (New England Nuclear) was added to the medium.
Cells were washed with PBS ([…], 10 mM Na2HPO4, 3.6 mM KCl, 1.8 mM KH2PO4, pH 7.4), dissociated by 0.05% trypsin, 0.5 mM EDTA (Life Technologies, Inc.) in PBS for 10 min at 22° C., and sedimented by 2000×g centrifugation at 4° C. for 5 min. The syndecan-4 ectoplasmic domain was immunoprecipitated from 0.5 ml of medium collected before cell trypsinization or from 0.5 ml of supernatant of the latter centrifugation. The cytoplasmic tail was immunoprecipitated from the pellet after a 30-min extraction at 4° C. in 0.5 mil of lysis buffer supplemented with 100 μM leupeptin, 2 μM pepstatin, and 10 nM okadaic acid (Sigma). Total protein concentrations in each fraction were measured by spectrophotometry at 595 nm (DU 640, Beckman, Fullerton, Calif.) of an aliquot developed for 10 min in Protein Assay Dye Reagent (Bio-Rad). Bovine serum albumin (Life Technologies Inc.) was used as standard.
The medium, trypsinization supernatant, and extracted pellet fractions were precleared by adding 30 μl of 1:1 (v/v) slurry of protein G plus/protein A-agarose beads (Calbiochem), and 10 μl of nonimmune rabbit serum (Life Technologies Inc.). After a 2-h incubation at 4° C. in rotating tubes, the beads were sedimented by 5 min, 5000×g centrifugation at 4° C. The cleared samples were supplemented with 40 μl of 1:1 (v/v) slurry of the above beads and 10 μl of rabbit polyclonal antiserum (syndecan-4 ectoplasmic domain-specific antiserum was added to the medium and trypsinization supernatant samples, and cytoplasmic tail-specific antiserum was added to the extracted pellet fraction) and incubated in rotating tubes for 18 h at 4° C. The agarose beads were collected by centrifugation as above, washed three times in heparinase digestion buffer, and resuspended in 40 μl of digestion buffer, and the GAG chains of the bead-attached ectoplasmic domains from the medium and from the trypsinization-supernatant were cleaved as above. The ectoplasmic and cytoplasmic tails were dissociated from the beads by a 10-min incubation in SDS buffer at 95° C., and the beads were sedimented by a 5 min, 13,000×g centrifugation at 4° C.
Immunoprecipitated, full-length syndecan-4 core proteins were resuspended in Laemmli sample buffer (2% SDS, 10% glycerol), 0.5% P-mercaptoethanol, 0.004% bromphenol blue, 50 mM Tris-HCl, pH 6.8) resolved by SDS-PAGE on a 10% slab gel, and transferred to a polyvinylidene fluoride (PVDF) membrane (Immobilon-P, Millipore, Bedford, Mass.) for 12 h at 25 mA in 150 mM glycine, 20 mM Tris-HCl, and 20% methanol. The ectoplasmic and cytoplasmic syndecan-4 domains were resolved on a 15% slab gel and transferred for 90 min at 20 mA in 150 mM glycine, 20 mM Tris-HCl, and 30% methanol to a low porosity PVDF membrane (Immobilon-P^SQ, Millipore). Radiolabeled bands detected by exposure to film (XAR, Kodak, Rochester, N.Y.) were excised, and their radioactivity was measured in both the ^32P and ^35S spectra by scintillation counting (LS 6000IC, Beckman, Fullerton, Calif.). In some cases, the same membranes were used for immunoblotting prior to band excision.
To determine the stoichiometry of the basal phosphorylation of syndecan-4, as well as the effect of bFGF and of other compounds on this phosphorylation, the cells were doubly labeled with [^35S]methionine and [^32P]orthophosphoric acid. […]

PKC = details: commercially available PKC inhibitors; cited from earlier work
recombinant PKCα = target: T1, recombinant PKCα (Homo sapiens, UniProt P17252); assay: PKC in vitro assay, phosphorylation of PKCβ1 optimal substrate peptide by recombinant PKCα; format: biochemical; details: 50 μM peptide with cofactors PS, DAG and calcium
T1 construct: made in house
Procedure: Samples (30 μl) consisted of PKCβ1 optimal substrate peptide (100 μM) either with or without syndecan-4 cytoplasmic tail peptides S4c or S4c-P (both at 50 μM) in 25 mM Tris-HCl (pH 7.4), […], 1 mM DTT, 50 μM ATP, and 5 μCi [y-^32P]ATP (New England Nuclear, Boston, Mass.). In some assays the buffer was supplemented with either PIP2 (50 μM), or PS (4 μg/ml), diolein (6.2 μg/ml), and 0.2 mM CaCl2. In PKCδ assays the buffer was supplemented with PS and diolein as above, and with 0.5 mM EGTA. Upon addition of either PKCα (120 ng/ml) or PKCδ (430 ng/ml), samples were incubated at 30° C. for 10 min, and reactions were stopped by boiling in Laemmli sample buffer for 4 min. The samples were resolved on 16.5% Tris-tricine gels (BioRad Laboratories), transferred to PVDF membranes and detected as described previously in Experimental Series I.
To assess the effect of Ser^183 phosphorylation on syndecan-4-dependent PKC activation, the ability of the 28 amino acid-long syndecan-4 cytoplasmic tail peptide, S4c, and S4c-P peptides to activate recombinant PKCα was studied using the PKCβ1 optimal substrate peptide in an in-vitro assay. The results are graphically illustrated by FIG. 5.
Densitometry histograms of autoradiographic images of PKC β1 optimal substrate peptide were resolved on 16.5% Tris-tricine gels and then transferred to PVDF membranes (n=3; bars denote SD). […]

[2] = PIP2 binding assay (filtration of PIP2 micelle-bound peptide)
Procedure: PIP2 (from Sigma, dissolved at 2 mg/ml in 20 parts CHCl3, 9 parts MeOH, 1 part H2O, 0.1 part 1N HCl) was dried under N2 and sonicated for 5 min in ice-cold H2O at a final concentration of 1 mg/ml. Syndecan-4 cytoplasmic tail peptides S4c or S4c-P (100 μM) were incubated on ice for 30 min with the indicated concentrations of PIP2 in 10 mM Tris-HCl (pH 7.5), 75 mM KCl, 0.5 mM DTT, in aliquots of 100 μl. The samples were layered on 30 kDA-molecular-mass cutoff cellulose filters (Ultrafree-MC, Millipore, Bedford, Mass.), and spun at 2000 g for 1 min, following the method described in Haarer et al., Mol. Cell Biol. 13: 7864-7873 (1993). The samples (40 μl of each in Laemmli sample buffer, 2% SDS, 10% glycerol, 0.5% β-mercaptoethanol, 0.004% bromophenol blue, 50 mM Tris-HCl, pH 6.8) were resolved by SDS-PAGE on 16.5% Tris-tricine gels (BioRad Laboratories, Hercules, Calif.). Gels were stained with Coomassie Brilliant Blue G-250 (BioRad Laboratories), and images of the stained bands were digitized (DeskScan II on ScanJet 4c, Hewlett Packard) and quantitated by densitometry (ImageQuant, Molecular Dynamics, Sunnyvale, Calif.).
Both the oligomerization and PKCα activation capacities of the cytoplasmic tail of syndecan-4 have been reported as depending on the presence of PIP2 [Oh et al., J. Biol. Chem. 272: 11805-11811 (1997); Lee et al., J. Biol. Chem. 273: 13022-13029 (1998)]. It was of interest, therefore, to determine whether the phosphorylation of Ser^183 in the cytoplasmic tail of syndecan-4 affects the affinity of the tail to PIP2. To this end, the in-vitro binding between PIP2 micelles and S4c or S4c-P peptides was compared using a filtration assay. The filter retains the PIP2 micelle-bound peptide, while the unbound peptide passes through it. The results are illustrated by FIGS. 7A and 7B respectively.
Samples were resolved on 16.5% Tris-tricine gels. FIG. 7B graphically illustrates the densitometry results of the gel bands of the S4c (black bars) and S4c-P (white bars) peptides shown in FIG. 7A.

[3] = test system: syndecan-4 expression in NIH 3T3 cells; assay: Syndecan-4 expression level by immunoblotting and densitometry of cell lysates; format: cell-based
Procedure: After blocking in PBS containing 5% nonfat milk powder for 1 h at 22° C., the membrane was incubated in the same solution supplemented with 1:3000 (v/v) dilution of either ectoplasmic or cytoplasmic tail-specific antiserum for 2 h, washed with PBS, and incubated for 1 h in 5% milk powder-PBS containing 1:2000 diluted goat anti-rabbit IgG conjugated to peroxidase (Vector Laboratories, Burlingame, Calif.). The secondary antibody was detected, after […] PBS wash, by chemiluminescence (Western Blot, Chemiluminescence Reagent Plus, New England Nuclear). Molecular weights were estimated by comparison with the electrophoretic mobility of standards (Kaleidoscope Prestained Standards, Bio-Rad). Densitometry of digitized images of immunoprobed membranes (ScanJet 4c, Hewlett Packard) was performed using ImageQuant software (Molecular Dynamics, Sunnyvale, Calif.).
If, contrary to our assumption, the incorporation efficiency of ^35S is higher than that of ^32P, the bFGF-induced decrease in syndecan-4 phosphorylation could solely result from bFGF up-regulation of syndecan-4 synthesis. […] The syndecan-4 bands, which similar to immunoprecipitated samples (FIG. 2A) ran at an approximate molecular mass of […], were detected with the antiserum specific to the ectoplasmic domain; and the amount of protein in each band was quantified by densiometry. […]

## Cn1c2ccccc2c2c3c(c4c5ccccc5n(CCC#N)c4c21)CNC3=O [Gö 6976]
[1]; Gö 6976 up to 100 nM in PMA (0.5 μM)-treated cells
  phosphorylation of syndecan-4: not reduced
PKC
  IC50: 8 nM

## CCCCCCCCCCCCCC(=O)O[C@@H]1[C@@H](C)[C@@]2(O)[C@@H](C=C(CO)C[C@]3(O)C(=O)C(C)=C[C@@H]23)[C@@H]2C(C)(C)[C@]12OC(C)=O [PMA, Phorbol-12-myristate-13-acetate]
[1]; 0.5 μM PMA
  syndecan-4 phosphorylation relative to basal level: ~3 fold
[1]; 0.5 μM PMA during last 5 h of serum-free starvation, n=3
  stoichiometry of the phosphorylation of syndecan-4: 0.81±0.33 mol Pi/mol syndecan-4

## COc1ccc2c(c[n+](C)c3c4cc5c(cc4ccc23)OCO5)c1OC [chelerythrine]
[1]; 6 μM chelerythrine together with 0.5 μM PMA
  phosphorylation of syndecan-4: undetectable level
[1]; applied together with 0.5 μM PMA
  concentration above which syndecan-4 phosphorylation started to decline: above 1.5 μM

## Calphostin
PKC
  IC50: 50 nM

## S4c-P: similar syndecan-4 cytoplasmic tail peptide with a phosphorylated Ser (RMKKKDEG[pS]YDLGKKPIYKKAPTNEFYA)
Recombinant PKCα
  effect on catalytic activity of PKCα: neither the S4c, nor the S4c-P peptides had any additional effect
[2]; calculated from densitometry of filter flow-through, FIG. 7, read-out: dissociation constant (Kd) for PIP2
  Kd: 232000 nM
[2]; peptide:PIP2 molar ratio of 1:2
  peptide passed through the filter: 50%
[2]; peptide:PIP2 molar ratio of 2:1, 100 μM peptide
  peptide retained by the filter: none

## basic fibrocyte growth factor [bFGF]
[1]; 10 ng/ml bFGF during last 5 h of serum-free starvation, n=5, basal 0.31±0.12
  phosphorylation stoichiometry of syndecan-4: 0.16±0.02 mol Pi/mol syndecan-4
[1]; 20 and 30 ng/ml bFGF, n=3
  phosphorylation stoichiometry of syndecan-4: 0.12±0.06 mol Pi/mol syndecan-4
[3]; 10 ng/ml bFGF
  level of syndecan-4 expression, % of control cells: 85%
[3]; 30 ng/ml bFGF
  level of syndecan-4 expression, % of control cells: 93%

## calyculin
[1]; 5 nM calyculin applied with 10 ng/ml bFGF
  syndecan-4 phosphorylation in bFGF-treated cells: basal level
[1]; 5 nM calyculin in the absence of bFGF
  increase of syndecan-4 phosphorylation relative to basal level: more than 2.5 fold
